Molecular target: Pancreatic cholesterol esterase (CEase)
Assay: CEase-catalyzed hydrolysis of p-nitrophenylbutyrate (PNPB), irreversible inhibition timecourse
Assay type: biochemical
Conditions: for Second-order inhibition rate constant ki/Ki: PNPB substrate, 25.0 °C, pH 7.3, 0.1M sodium phosphate, 0.1N NaCl, 1 mM Triton X100; for t1/2, half-life of irreversible inhibition: in presence of 10^-5 M inhibitor, calculated t1/2 = ln(2)/(ki[I])
Experimental: The CEase-catalyzed hydrolysis of the water-soluble substrate p-nitrophenylbutyrate (PNPB) is the reaction that was routinely used to characterize irreversible inhibitors. The reaction is followed at 25.0±0.1° C. and pH 7.3 in 0.1M sodium phosphate buffer that contains 0.1N NaCl, 1 mM Triton X100, and the appropriate concentrations of CEase and PNPB. Characterization of inhibitors occurs in three steps: First, inhibitor is added to CEase and the percent activity of the enzyme is measured as a function of time. A corresponding control (contains no inhibitor) measures the 100% activity level. Secondly, the pseudo-first order inhibition rate constant is calculated from the activity versus time data.
%A=(%AO -%Ainf)e^-kt +%Ainf (1)
The pseudofirst order inhibition rate constant is plotted versus [I]. If the plot is linear, the second-order inhibition rate constant, ki /Ki, is the slope of a linear-leastsquares fit of the plot. And, thirdly, if plot is nonlinear and hyperbolic, the following inhibition mechanism is indicated: [drawing 5] In this mechanism, the inhibitor first forms a reversible, noncovalent complex, EI, with the enzyme. An enzymic nucleophile, presumably the active site serine (cf. Scheme I) then attacks the carbonyl carbon of the carbamate functionality of the inhibitor, with subsequent expulsion of the aromatic leaving group. For the above mechanism, the dependence of k on [I] is described by the following equation: [formula] […] From this fit the maximum first-order inhibition rate constant (ki) and the dissociation constant of EI (Ki) were determined, and consequently ki /Ki could be calculated.

| Structure (SMILES) | Second-order inhibition rate constant ki/Ki [M⁻¹ s⁻¹] | Irreversible inhibition of CEase (statement in words) (comparison of second-order inhibition rate constants of Table I) | t1/2, half-life of irreversible inhibition [min] |
| --- | --- | --- | --- |
| CCCCCCCCNC(=O)Oc1ccc2ccccc2c1 [2-Naphthyl n-Octyl Carbamate] | 1350 | most potent irreversible carbamate inhibitor of CEase | 0.86 |
| CCCCNC(=O)Oc1ccc(NC(C)=O)cc1 [p-Acetamidophenyl n-Butyl Carbamate] | 40 |  | 29 |
| CCCCCCNC(=O)Oc1ccc(NC(C)=O)cc1 [p-Acetamidophenyl n-Hexyl Carbamate] | 493 |  | 2.3 |
| CCCCCCCCNC(=O)Oc1ccc(NC(C)=O)cc1 [p-Acetamidophenyl n-Octyl Carbamate] | 100 |  | 11.6 |
| CCCCCNC(=O)Oc1ccc(NC(C)=O)cc1 [p-Acetamidophenyl n-Pentyl Carbamate] | 100 |  | 11.6 |

Source: patent US5066674A, “Carbamate inhibitors of cholesterol esterase and their use as hypolipidemic and hypocaloric agents” (University of Iowa Research Foundation, priority 1990, dated 1991)
